From patent US20230116972A1, “CD38 MODULATORS AND METHODS OF USE THEREOF” (Cytokinetics, Inc., priority 2021, published 2023)

Legend:
human CD38 = target: T1, human CD38 (Homo sapiens, UniProt P28907); assay: human recombinant CD38 enzyme assay (hydrolysis of NAD+); format: biochemical; conditions: human recombinant CD38, 0.4 nM enzyme, 62.5 μM NAD+; read-out: hCD38 BioChem IC50
T1 sequence (P28907 1-300): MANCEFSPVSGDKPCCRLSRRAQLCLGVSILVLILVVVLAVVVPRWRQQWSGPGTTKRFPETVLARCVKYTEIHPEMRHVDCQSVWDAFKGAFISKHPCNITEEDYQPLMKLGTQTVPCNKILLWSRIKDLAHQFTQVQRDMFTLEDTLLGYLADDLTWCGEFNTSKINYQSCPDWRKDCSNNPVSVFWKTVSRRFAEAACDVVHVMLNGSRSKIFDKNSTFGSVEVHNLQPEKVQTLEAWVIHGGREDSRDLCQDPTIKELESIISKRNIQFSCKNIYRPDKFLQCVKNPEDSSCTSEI
Procedure: (§1) Compounds described herein were assayed for their ability to inhibit the hydrolysis of NAD+ by the protein CD38. The human and mouse recombinant enzyme assays measure the inhibition of the enzyme activity by compounds using recombinant enzymes and substrates in a buffered cell-free system. The assay conditions closely mimic cellular environments. Dose responses were measured using an assay to detect the hydrolysis of NAD+. All experiments were performed in the 384-well format. […] Enzyme reactions were initiated with the addition of 10 μL of a solution containing NAD+ substrate. Subsequent detection of remaining NAD+ was determined by first converting NAD+ to NADH using alcohol dehydrogenase, then using the resulting NADH to reduce resazurine to the fluorescent product resorufin. […] Following an incubation of 60 min at ambient temperature, 10 μL of 120 mM ethanol+20 U/ml alcohol dehydrogenase+30 mM semicarbazide+0.03 mM CD38 inhibitor in 50 mM HEPES, pH 7.5, 0.2 mg/ml BSA, was added and incubated at ambient temperature for 15 min. Then 10 μl 0.32 mM NaOH was added to stop the ADH reaction (plates incubated at ambient temperature for 15 min), followed by 30 μL of 0.05 mM resazurine+1000 mU/ml Diaphorase in 200 mM Tris-HCl, pH 7.7 for 15 min at ambient temperature. The plates were read for fluorescence (Excitation/Emission=540 nm/590 nm) using an EnVision plate reader. […] Note that, in Table 4, the “Compound No” corresponds to the compound numbers in Table 1.

mouse CD38 = target: T2, mouse CD38 (Mus musculus, UniProt P56528); assay: mouse recombinant CD38 enzyme assay (hydrolysis of NAD+); format: biochemical; conditions: read-out: mCD38 BioChem IC50
T2 sequence (P56528 1-304): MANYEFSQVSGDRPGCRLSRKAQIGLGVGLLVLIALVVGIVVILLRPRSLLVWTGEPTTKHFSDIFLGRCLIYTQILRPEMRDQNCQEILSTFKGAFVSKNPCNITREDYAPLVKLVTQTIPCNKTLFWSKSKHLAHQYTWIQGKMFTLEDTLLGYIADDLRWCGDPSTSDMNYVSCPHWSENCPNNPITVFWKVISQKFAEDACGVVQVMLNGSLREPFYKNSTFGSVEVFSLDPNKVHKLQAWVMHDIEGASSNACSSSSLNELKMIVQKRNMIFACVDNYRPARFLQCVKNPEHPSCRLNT
Procedure: as §1

Question: Which IC50 (human CD38) does the source give for O=C(Nc1cccnc1)c1cc(C(F)(F)F)cc(-c2cncs2)n1 [Compound 41, N-(pyridin-3-yl)-6-(thiazol-5-yl)-4-(trifluoromethyl)picolinamide] here?
Answer: 1210 nM

Question: What about the IC50 (mouse CD38) of the same molecule?
Answer: 244 nM

Question: What does the source list for O=C(Nc1ccc(C(F)(F)F)nc1)c1cccc(-c2cncs2)n1 [Compound 50, 6-(thiazol-5-yl)-N-(6-(trifluoromethyl)pyridin-3-yl)picolinamide]?
Answer: IC50 (human CD38): 1440 nM; IC50 (mouse CD38): 855 nM

Question: Which IC50 (human CD38) does the source give for Cc1ccc(NC(=O)c2cccc(-c3cncs3)n2)cn1 [Compound 51, N-(6-methylpyridin-3-yl)-6-(thiazol-5-yl)picolinamide] here?
Answer: 1200 nM

Question: And the IC50 (mouse CD38)?
Answer: 487 nM

Question: Which IC50 (human CD38) does the source give for O=C(NC1(c2ccc(C(F)(F)F)cc2)COC1)c1cccc(-n2ccnc2)n1 [Compound 58, 6-(1H-imidazol-1-yl)-N-(3-(4-(trifluoromethyl)phenyl)oxetan-3-yl)picolinamide] here?
Answer: 2180 nM

Question: What about the IC50 (mouse CD38) of the same molecule?
Answer: 1040 nM

Question: What does the source list for NC(=O)c1cn(-c2cccc(C(=O)Nc3ccc(C(F)(F)F)nc3)n2)cn1 [Compound 76, 6-(4-carbamoyl-1H-imidazol-1-yl)-N-(6-(trifluoromethyl)pyridin-3-yl)picolinamide]?
Answer: IC50 (human CD38): 905 nM; IC50 (mouse CD38): 3200 nM

Question: What does the source list for CO[C@H]1CC[C@H](NC(=O)c2cc(C3CC3)nc(-c3cncs3)n2)CC1 [Compound 108, 6-Cyclopropyl-N-((1r,4r)-4-methoxycyclohexyl)-2-(thiazol-5-yl)pyrimidine-4-carboxamide]?
Answer: IC50 (human CD38): 711 nM; IC50 (mouse CD38): 33 nM

Question: O=C(Nc1ccc(C(F)(F)F)nc1)c1cc(C2CC2)nc(-c2cncs2)n1 [Compound 109, 6-cyclopropyl-2-(thiazol-5-yl)-N-(6-(trifluoromethyl)pyridin-3-yl)pyrimidine-4-carboxamide] was tested. Which IC50 (human CD38) did it give?
Answer: 312 nM

Question: And the IC50 (mouse CD38)?
Answer: 66 nM

Question: Which results are given for C[C@H]1CC[C@H](NC(=O)c2ccnc(-c3cncs3)n2)CC1 [Compound 112, N-((1r,4r)-4-methylcyclohexyl)-2-(thiazol-5-yl)pyrimidine-4-carboxamide]?
Answer: IC50 (human CD38): 639 nM; IC50 (mouse CD38): 158 nM

Question: What does the source list for CO[C@H]1CC[C@H](NC(=O)c2ccnc(-c3cncs3)n2)CC1 [Compound 113, N-((1r,4r)-4-methoxycyclohexyl)-2-(thiazol-5-yl)pyrimidine-4-carboxamide]?
Answer: IC50 (human CD38): 569 nM; IC50 (mouse CD38): 166 nM

Question: What does the source list for O=C(Nc1ccc(C(F)(F)F)nc1)c1cc(C(F)(F)F)nc(-c2cncs2)n1 [Compound 115, 2-(thiazol-5-yl)-6-(trifluoromethyl)-N-(6-(trifluoromethyl)pyridin-3-yl)pyrimidine-4-carboxamide]?
Answer: IC50 (human CD38): 1260 nM; IC50 (mouse CD38): 494 nM

Question: Which IC50 (human CD38) does the source give for CO[C@H]1CC[C@H](NC(=O)c2cc(O)nc(-n3ccnc3)n2)CC1 [Compound 126, 6-hydroxy-2-(1H-imidazol-1-yl)-N-((1r,4r)-4-methoxycyclohexyl)pyrimidine-4-carboxamide] here?
Answer: 841 nM

Question: What about the IC50 (mouse CD38) of the same molecule?
Answer: 84 nM

Question: For CO[C@H]1CC[C@H](NC(=O)c2cc(C)cc(-c3cncs3)n2)CC1 [Compound 133, N-(4-methoxycyclohexyl)-4-methyl-6-(thiazol-5-yl)picolinamide], which IC50 (human CD38) is on record?
Answer: 1730 nM

Question: What about the IC50 (mouse CD38) of the same molecule?
Answer: 135 nM

Question: Which results are given for COC[C@H]1CC[C@H](NC(=O)c2ccnc(-c3cncs3)n2)CC1 [Compound 139, N-((1r,4r)-4-(methoxymethyl)cyclohexyl)-2-(thiazol-5-yl)pyrimidine-4-carboxamide]?
Answer: IC50 (human CD38): 1010 nM; IC50 (mouse CD38): 232 nM

Question: How did the IC50 (human CD38) turn out when O=C(N[C@H]1CC[C@H](CO)CC1)c1ccnc(-c2cncs2)n1 [Compound 140, N-((1r,4r)-4-(hydroxymethyl)cyclohexyl)-2-(thiazol-5-yl)pyrimidine-4-carboxamide] was run?
Answer: 747 nM

Question: And the IC50 (mouse CD38)?
Answer: 117 nM

Question: Which results are given for O=C(N[C@H]1CC[C@H](CO)CC1)c1cc(C2CC2)nc(-c2cncs2)n1 [Compound 141, 6-cyclopropyl-N-((1r,4r)-4-(hydroxymethyl)cyclohexyl)-2-(thiazol-5-yl)pyrimidine-4-carboxamide]?
Answer: IC50 (human CD38): 761 nM; IC50 (mouse CD38): 28 nM

Question: How did the IC50 (human CD38) turn out when O=C(NC1CCS(=O)(=O)CC1)c1cc(C2CC2)nc(-c2cncs2)n1 [Compound 142, 6-cyclopropyl-N-(1,1-dioxidotetrahydro-2H-thiopyran-4-yl)-2-(thiazol-5-yl)pyrimidine-4-carboxamide] was run?
Answer: 1720 nM

Question: And the IC50 (mouse CD38)?
Answer: 161 nM

Question: O=C(Nc1ccc(C(F)(F)F)nc1)c1cccc(-n2cnnc2)n1 [Compound 143, 6-(4H-1,2,4-triazol-4-yl)-N-(6-(trifluoromethyl)pyridin-3-yl)picolinamide] was tested. Which IC50 (human CD38) did it give?
Answer: 2040 nM

Question: And the IC50 (mouse CD38)?
Answer: 1970 nM

Question: What does the source list for O=C(Nc1ccc(C(F)F)nc1)c1nccc(-c2cncs2)n1 [Compound 150, N-(6-(difluoromethyl)pyridin-3-yl)-4-(thiazol-5-yl)pyrimidine-2-carboxamide]?
Answer: IC50 (human CD38): 1060 nM; IC50 (mouse CD38): 4990 nM

Question: What does the source list for CO[C@H]1CC[C@H](NC(=O)c2cc(C3CC3)nc(-n3ccnc3)n2)CC1 [Compound 160, 6-cyclopropyl-2-(1H-imidazol-1-yl)-N-((1r,4r)-4-methoxycyclohexyl)pyrimidine-4-carboxamide]?
Answer: IC50 (human CD38): 27 nM; IC50 (mouse CD38): 4 nM

Question: For CO[C@H]1CC[C@H](NC(=O)c2cc(C(C)C)nc(-n3ccnc3)n2)CC1 [Compound 167, 2-(1H-imidazol-1-yl)-6-isopropyl-N-((1r,4r)-4-methoxycyclohexyl)pyrimidine-4-carboxamide], which IC50 (human CD38) is on record?
Answer: 214 nM

Question: What about the IC50 (mouse CD38) of the same molecule?
Answer: 46 nM

Question: Which IC50 (human CD38) does the source give for Cn1cncc1-c1nc(C(=O)Nc2ccc(C(F)(F)F)nc2)cc(C(C)(C)O)n1 [Compound 176, 6-(2-hydroxypropan-2-yl)-2-(1-methyl-1H-imidazol-5-yl)-N-(6-(trifluoromethyl)pyridin-3-yl)pyrimidine-4-carboxamide] here?
Answer: 28 nM

Question: And the IC50 (mouse CD38)?
Answer: 19 nM

Question: Cn1cncc1-c1nc(C(=O)N[C@H]2CC[C@H](C(F)F)CC2)cc(C(C)(C)O)n1 [Compound 177, N-((1r,4r)-4-(difluoromethyl)cyclohexyl)-6-(2-hydroxypropan-2-yl)-2-(1-methyl-1H-imidazol-5-yl)pyrimidine-4-carboxamide] was tested. Which IC50 (human CD38) did it give?
Answer: 35 nM

Question: And the IC50 (mouse CD38)?
Answer: 9 nM

Question: For CO[C@H]1CC[C@H](NC(=O)c2cc(C(C)(C)O)nc(-c3cncn3C)n2)CC1 [Compound 178, 6-(2-Hydroxypropan-2-yl)-N-((1r,4r)-4-methoxycyclohexyl)-2-(1-methyl-1H-imidazol-5-yl)pyrimidine-4-carboxamide], which IC50 (human CD38) is on record?
Answer: 57 nM

Question: What about the IC50 (mouse CD38) of the same molecule?
Answer: 13 nM

Question: For O=C(Nc1ccc(C(F)F)nc1)c1cc(N2CCCC2)cc(-c2cncs2)n1 [Compound 179, N-(6-(Difluoromethyl)pyridin-3-yl)-4-(pyrrolidin-1-yl)-6-(thiazol-5-yl)picolinamide], which IC50 (human CD38) is on record?
Answer: 1380 nM

Question: And the IC50 (mouse CD38)?
Answer: 142 nM

Question: With CO[C@H]1CC[C@H](NC(=O)c2cc(N3CCCC3)cc(-n3ccnc3)n2)CC1 [Compound 180, 6-(1H-imidazol-1-yl)-N-(4-methoxycyclohexyl)-4-(pyrrolidin-1-yl)picolinamide] as the molecule, how does the IC50 (human CD38) read?
Answer: 78 nM

Question: And the IC50 (mouse CD38)?
Answer: 8 nM

Question: Which results are given for CO[C@H]1CC[C@H](NC(=O)c2cc(C3CCC3)nc(-c3cncn3C)n2)CC1 [Compound 181, 6-Cyclobutyl-N-((1r,4r)-4-methoxycyclohexyl)-2-(1-methyl-1H-imidazol-5-yl)pyrimidine-4-carboxamide]?
Answer: IC50 (human CD38): 14 nM; IC50 (mouse CD38): 2 nM

Question: How did the IC50 (human CD38) turn out when Cn1cncc1-c1nc(C(=O)NC2CCC(F)(F)CC2)cc(C2CCC2)n1 [Compound 182, 6-cyclobutyl-N-(4,4-difluorocyclohexyl)-2-(1-methyl-1H-imidazol-5-yl)pyrimidine-4-carboxamide] was run?
Answer: 11 nM

Question: And the IC50 (mouse CD38)?
Answer: 2 nM

Question: Which IC50 (human CD38) does the source give for Cn1cncc1-c1nc(C(=O)Nc2ccc(C(F)F)nc2)cc(C2CCC2)n1 [Compound 183, 6-cyclobutyl-N-(6-(difluoromethyl)pyridin-3-yl)-2-(1-methyl-1H-imidazol-5-yl)pyrimidine-4-carboxamide] here?
Answer: 7 nM

Question: What about the IC50 (mouse CD38) of the same molecule?
Answer: 2 nM

Question: Which IC50 (human CD38) does the source give for CO[C@H]1CC[C@H](NC(=O)c2cc(C3CCC3)nc(-n3ccnc3)n2)CC1 [Compound 184, 6-cyclobutyl-2-(1H-imidazol-1-yl)-N-((1r,4r)-4-methoxycyclohexyl)pyrimidine-4-carboxamide] here?
Answer: 56 nM

Question: What about the IC50 (mouse CD38) of the same molecule?
Answer: 16 nM
